Data set [1] in a line: Pharmacokinetic determination in mice (plasma). It counts as in vivo, C57BL/6J mice. The note with it: C57 mice, PO administration, 5 mpk; for AUC(0-inf) / half-life / MRT / Cmax: male, C57BL/6J, mouse, 5 mg/kg; for AUC(0-inf): read-out: Area under the curve AUC0-∞; for half-life: read-out: Half-life t1/2 (converted); for MRT: read-out: Mean residence time MRT; for Cmax: read-out: Plasma concentration Cmax. The method in brief: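 Male C57BL/6J mice (n=3 per route), fasted overnight, got 5 mg/kg PO in 10% Solutol HS15 or 1 mg/kg IV in 5% DMSO/10% Solutol HS15/85% PBS. Orbital blood was sampled at 0.083 (IV only), 0.25, 0.5, 1, 2, 4, 8 and 24 h. EDTA-K2 plasma was quantified by LC-MS/MS for PK parameters.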

Data set [2] concerns hyperlipidemia animal model of B6-hPCSK9 transgenic mice. Kind of data set: In vivo pharmacodynamics in hyperlipidemia animal model of B6-hPCSK9 transgenic mice. On the set-up: species or system B6-hPCSK9 transgenic C57 mice. The note with it: PO administration, 10 mpk, Day 14, high-fat feed. On the procedure:
The compounds of the present disclosure were evaluated for in vivo pharmacodynamics in a hyperlipidemia animal model of B6-hPCSK9 transgenic mice.
B6-hPCSK9 transgenic C57 mice, 6-8 weeks old, male, purchased from Jiangsu GemPharmatech Co., Ltd.
After delivery to a barrier system, the animals were given one week for acclimatization and began to feed on the high-fat feed. The body weight and feed weight were weighed once a week, and the body weight and food intake thereof were recorded.
a. The animals were grouped by a random grouping method.
c. According to the grouping results, administration with the test drug was started (mode of administration: oral administration; administration volume: 10 mL/kg; frequency of administration: once/day or single administration; administration cycle: 21 days; vehicle: 10% Solutol HS 15/90% Saline).
d. After the test drug was administered, the body weight and feed weight were weighed twice a week and blood was taken once a week.
e. The data was processed with software such as Excel. […] PCSK9 in plasma was detected by ELISA.

In data set [3] the test system is LDLR level in HepG2 cells. The experiment in a line: Effect on the LDLR level in HepG2 cells (ELISA). It counts as cell-based, human. The note with it: 48 hours incubation, LDLR ELISA of lysate. On the set-up: concentration or dose not given beside the values. How it is done: To detect the effect of the compounds on the LDLR protein level.
Envision (PE-Cisbio: 2105-0020), centrifuge (Eppendorf: 5810R), water purifier (THERMO: Pacific T II+Micropure), plate washer (Thermo: […] VERSA), and microplate shaker (Thermo: 88882006)
• 1) HepG2 cell strain was cultured in the complete culture medium at 37° C., 5% CO2 to 70-90% confluence. • 2) The cells were digested and resuspended in the experimental culture medium, inoculation was performed at 25,000 cells/well/200 μL in a 96-well cell culture plate, and the cells were cultured at 37° C., 5% CO2 for 20-24 hours. • 3) The culture medium was removed from the cell culture plate, and the cell culture plate was washed once by adding 200 μl of the experimental culture medium to each well. • 4) Preparation of positive control compound and compound to be tested: the positive control compound and the compound to be tested were diluted on the compound plate. • 5) The diluted compound was added to the cell culture plate at 250 μL per well and incubated at 37° C. and 5% CO2 for 48 hours. • 6) The cell culture medium was removed, the cells were washed with PBS, and 50 μL of the cell lysis buffer and the protein inhibitor were added. • 7) After centrifugation, the lysate was removed and the sample was stored for later use. • 8) Preparation of standard curve: corresponding volumes of Dilution buffer were successively added to respective standard tubes, and the standard was diluted in series by taking the corresponding volume from the original tube or the last concentration tube. • 9) Preparation of washing liquid: 10× Wash buffer was diluted into 1× with Milli-Q for later use. • 10) According to the standard curve wells and sample wells set according to a plate map, 80 μL/well of the corresponding standards and samples were added to the wells, with 2 replicate wells. A well in which no standard was added was used as a background value well. A self-adhesive seal was applied, the plate was placed on a plate shaker at room temperature, gently shaken, uniformly mixed, and incubated for 2 hours. • 11) The plate was placed on the plate washer, the washing liquid was set to 350 μL per well, and the plate was washed 4 times repeatedly. • 12) 200 μL of Human LDLR conjugate was added, a self-adhesive seal was applied, and the plate was placed on the plate shaker, well mixed uniformly, and incubated for 2 hours. • 13) The plate was placed on the plate washer, the washing liquid was set to 350 μL per well, and the plate was washed 4 times repeatedly. • 14) 200 μL/well of Substrate solution was added, and the plate was placed in the dark, applied with a self-adhesive seal, placed on the plate shaker, well mixed uniformly, and incubated for 20 minutes. • 15) 50 μL/well of Stop solution was added and mixed uniformly over 20 min. • 16) The optical density (OD) value in each well was measured in sequence at a wavelength of 450 nm by the microplate reader.
After the OD values were read by the microplate reader, the OD value of the 0-concentration standard in the standard group was subtracted from the OD values of the standards, control group, and samples to obtain the actual OD values for these wells. A standard curve was plotted with Graphpad and the concentration of the sample was calculated. If the dilution was performed during the sample detection, the calculated sample concentration was necessarily multiplied by the corresponding dilution ratio in the final calculation, which was the actual concentration of the sample. Concentration increase %=(actual concentration in control-actual concentration in sample)/actual concentration in control*100.
(ELISA stands for enzyme-linked immunosorbent assay.)

What is called MRT is the average time that molecules of a dose stay in the body.

Take `Cc1cc2c(cn1)CN(c1ccc(N[C@H]3CC[C@H](Nc4ncc(C(F)(F)F)nn4)C3)nc1)C2=O` [Example 148, 6-Methyl-2-(6-(((1S,3S)-3-((6-(trifluoromethyl)-1,2,4-triazin-3-yl)amino)cyclopentyl)amino)pyridin-3-yl)-2,3-dihydro-1H-pyrrolo[3,4-c]pyridin-1-one]: in data set [1], the Time to peak tmax was 1 h, the AUC(0-inf) is 59800 ng·h/mL, the half-life is 3.4 h and the MRT was 4.3 h. The Cmax in data set [1] came to 13500 ng/mL. Further, the “LDL-C change, Day 14” value in data set [2] is given as −24.61%. In data set [3], this compound registered an LDLR expression level of 121%.
Regarding `O=C1c2ncccc2CN1c1ccc(N[C@H]2CC[C@H](Nc3ncc(C(F)(F)F)nn3)C2)nc1` [Example 144], in data set [1], the Time to peak tmax turned out to be 1 h, the AUC(0-inf) was 15000 ng·h/mL, the half-life is 2.8 h and the MRT worked out at 4 h. Further, the Cmax in data set [1] is 2820 ng/mL. Moreover, the “LDL-C change, Day 14” value in data set [2] was −30.39%. For the same compound, the LDLR expression level in data set [3] came to 117%.
As to `O=C1c2c(cccc2C(F)(F)F)CN1c1ccc(N[C@H]2CC[C@H](Nc3ncc(C(F)(F)F)nn3)C2)nc1` [Example 157, 7-(Trifluoromethyl)-2-(6-(((1S,3S)-3-((6-(trifluoromethyl)-1,2,4-triazin-3-yl)amino)cyclopentyl)amino)pyridin-3-yl) isoindolin-1-one], in data set [1], the Time to peak tmax was 0.5 h, the AUC(0-inf) turned out to be 6200 ng·h/mL, the half-life was 3.1 h and the MRT was 2.6 h. Also, in data set [1], the Cmax was 2190 ng/mL. Moreover, in data set [2], the “LDL-C change, Day 14” value was −28.99%. Moreover, the LDLR expression level in data set [3] is recorded as 129%.

(Values after US20250326722A1 (SHANGHAI HANSOH BIOMEDICAL CO., LTD., priority 2022, published 2025).)
